{
  "source": "the NIST ThermoML archive (doi:10.1016/j.fluid.2014.06.021)",
  "assay": "activity coefficient (dimensionless); of the first substance listed, at infinite dilution; xn = mol fraction of the nth substance listed",
  "settings": "101.33 kPa, Liquid, Chromatography, x1 = 0",
  "note": "± gives the expanded uncertainty stated by the source.",
  "data": [
    {"compound": "CCCC(C)=O", "note": "[pentan-2-one] + C[n+]1ccn(CCCCS(=O)(=O)O)c1.O=S(=O)([O-])O", "values": [
      {"measurement": "activity coefficient", "setting": "323.15 K", "result": "13.4 ± 0.92"},
      {"measurement": "activity coefficient", "setting": "333.15 K", "result": "13.2 ± 0.9"},
      {"measurement": "activity coefficient", "setting": "343.15 K", "result": "12.5 ± 0.85"}
    ]},
    {"compound": "CCC(=O)CC", "note": "[pentan-3-one] + C[n+]1ccn(CCCCS(=O)(=O)O)c1.O=S(=O)([N-]S(=O)(=O)C(F)(F)F)C(F)(F)F", "values": [
      {"measurement": "activity coefficient", "setting": "323.15 K", "result": "0.54 ± 0.04"},
      {"measurement": "activity coefficient", "setting": "333.15 K", "result": "0.64 ± 0.04"},
      {"measurement": "activity coefficient", "setting": "343.15 K", "result": "0.77 ± 0.05"}
    ]},
    {"compound": "CCC(=O)CC", "note": "[pentan-3-one] + C[n+]1ccn(CCCCS(=O)(=O)O)c1.O=S(=O)([O-])C(F)(F)F", "values": [
      {"measurement": "activity coefficient", "setting": "323.15 K", "result": "2.31 ± 0.16"},
      {"measurement": "activity coefficient", "setting": "333.15 K", "result": "2.33 ± 0.16"},
      {"measurement": "activity coefficient", "setting": "343.15 K", "result": "2.44 ± 0.17"}
    ]},
    {"compound": "CCC(=O)CC", "note": "[pentan-3-one] + C[n+]1ccn(CCCCS(=O)(=O)O)c1.O=S(=O)([O-])O", "values": [
      {"measurement": "activity coefficient", "setting": "323.15 K", "result": "14.2 ± 0.97"},
      {"measurement": "activity coefficient", "setting": "333.15 K", "result": "13.8 ± 0.94"},
      {"measurement": "activity coefficient", "setting": "343.15 K", "result": "13.2 ± 0.9"}
    ]},
    {"compound": "CCCO", "note": "[propan-1-ol] + C[n+]1ccn(CCCCS(=O)(=O)O)c1.O=S(=O)([N-]S(=O)(=O)C(F)(F)F)C(F)(F)F", "values": [
      {"measurement": "activity coefficient", "setting": "333.15 K", "result": "0.13 ± 0.03"},
      {"measurement": "activity coefficient", "setting": "343.15 K", "result": "0.16 ± 0.03"}
    ]},
    {"compound": "CC(C)O", "note": "[propan-2-ol] + C[n+]1ccn(CCCCS(=O)(=O)O)c1.O=S(=O)([N-]S(=O)(=O)C(F)(F)F)C(F)(F)F", "values": [
      {"measurement": "activity coefficient", "setting": "333.15 K", "result": "0.09 ± 0.03"},
      {"measurement": "activity coefficient", "setting": "343.15 K", "result": "0.11 ± 0.03"}
    ]},
    {"compound": "ClC(Cl)(Cl)Cl", "note": "[tetrachloromethane] + C[n+]1ccn(CCCCS(=O)(=O)O)c1.O=S(=O)([N-]S(=O)(=O)C(F)(F)F)C(F)(F)F", "values": [
      {"measurement": "activity coefficient", "setting": "323.15 K", "result": "7.71 ± 0.53"},
      {"measurement": "activity coefficient", "setting": "333.15 K", "result": "7.99 ± 0.54"},
      {"measurement": "activity coefficient", "setting": "343.15 K", "result": "8.1 ± 0.6"}
    ]},
    {"compound": "ClC(Cl)(Cl)Cl", "note": "[tetrachloromethane] + C[n+]1ccn(CCCCS(=O)(=O)O)c1.O=S(=O)([O-])C(F)(F)F", "values": [
      {"measurement": "activity coefficient", "setting": "323.15 K", "result": "12.4 ± 0.85"},
      {"measurement": "activity coefficient", "setting": "333.15 K", "result": "12.1 ± 0.83"},
      {"measurement": "activity coefficient", "setting": "343.15 K", "result": "11.4 ± 0.78"}
    ]},
    {"compound": "CCCCCCCCCCCCCC", "note": "[tetradecane] + C[n+]1ccn(CCCCS(=O)(=O)O)c1.O=S(=O)([N-]S(=O)(=O)C(F)(F)F)C(F)(F)F", "values": [
      {"measurement": "activity coefficient", "setting": "323.15 K", "result": "1180 ± 81"},
      {"measurement": "activity coefficient", "setting": "333.15 K", "result": "1060 ± 73"},
      {"measurement": "activity coefficient", "setting": "343.15 K", "result": "941 ± 65"}
    ]},
    {"compound": "CCCCCCCCCCCCCC", "note": "[tetradecane] + C[n+]1ccn(CCCCS(=O)(=O)O)c1.O=S(=O)([O-])O", "values": [
      {"measurement": "activity coefficient", "setting": "323.15 K", "result": "1910 ± 130"},
      {"measurement": "activity coefficient", "setting": "333.15 K", "result": "1750 ± 120"},
      {"measurement": "activity coefficient", "setting": "343.15 K", "result": "1680 ± 120"}
    ]},
    {"compound": "c1ccsc1", "note": "[thiophene] + C[n+]1ccn(CCCCS(=O)(=O)O)c1.O=S(=O)([N-]S(=O)(=O)C(F)(F)F)C(F)(F)F", "values": [
      {"measurement": "activity coefficient", "setting": "323.15 K", "result": "0.83 ± 0.05"},
      {"measurement": "activity coefficient", "setting": "333.15 K", "result": "0.83 ± 0.05"},
      {"measurement": "activity coefficient", "setting": "343.15 K", "result": "0.82 ± 0.05"}
    ]},
    {"compound": "c1ccsc1", "note": "[thiophene] + C[n+]1ccn(CCCCS(=O)(=O)O)c1.O=S(=O)([O-])C(F)(F)F", "values": [
      {"measurement": "activity coefficient", "setting": "323.15 K", "result": "2.24 ± 0.15"},
      {"measurement": "activity coefficient", "setting": "333.15 K", "result": "2.23 ± 0.15"},
      {"measurement": "activity coefficient", "setting": "343.15 K", "result": "2.22 ± 0.15"}
    ]},
    {"compound": "c1ccsc1", "note": "[thiophene] + C[n+]1ccn(CCCCS(=O)(=O)O)c1.O=S(=O)([O-])O", "values": [
      {"measurement": "activity coefficient", "setting": "323.15 K", "result": "6.56 ± 0.45"},
      {"measurement": "activity coefficient", "setting": "333.15 K", "result": "6.43 ± 0.44"},
      {"measurement": "activity coefficient", "setting": "343.15 K", "result": "6.13 ± 0.42"}
    ]},
    {"compound": "Cc1ccccc1", "note": "[toluene] + C[n+]1ccn(CCCCS(=O)(=O)O)c1.O=S(=O)([N-]S(=O)(=O)C(F)(F)F)C(F)(F)F", "values": [
      {"measurement": "activity coefficient", "setting": "323.15 K", "result": "3.1 ± 0.2"},
      {"measurement": "activity coefficient", "setting": "333.15 K", "result": "3.28 ± 0.22"},
      {"measurement": "activity coefficient", "setting": "343.15 K", "result": "3.31 ± 0.23"}
    ]},
    {"compound": "Cc1ccccc1", "note": "[toluene] + C[n+]1ccn(CCCCS(=O)(=O)O)c1.O=S(=O)([O-])C(F)(F)F", "values": [
      {"measurement": "activity coefficient", "setting": "323.15 K", "result": "5.74 ± 0.39"},
      {"measurement": "activity coefficient", "setting": "333.15 K", "result": "5.54 ± 0.38"},
      {"measurement": "activity coefficient", "setting": "343.15 K", "result": "5.54 ± 0.38"}
    ]},
    {"compound": "Cc1ccccc1", "note": "[toluene] + C[n+]1ccn(CCCCS(=O)(=O)O)c1.O=S(=O)([O-])O", "values": [
      {"measurement": "activity coefficient", "setting": "323.15 K", "result": "28.3 ± 1.9"},
      {"measurement": "activity coefficient", "setting": "333.15 K", "result": "26.6 ± 1.8"},
      {"measurement": "activity coefficient", "setting": "343.15 K", "result": "24.9 ± 1.7"}
    ]},
    {"compound": "ClC(Cl)Cl", "note": "[trichloromethane] + C[n+]1ccn(CCCCS(=O)(=O)O)c1.O=S(=O)([N-]S(=O)(=O)C(F)(F)F)C(F)(F)F", "values": [
      {"measurement": "activity coefficient", "setting": "323.15 K", "result": "1.81 ± 0.12"},
      {"measurement": "activity coefficient", "setting": "333.15 K", "result": "1.83 ± 0.12"},
      {"measurement": "activity coefficient", "setting": "343.15 K", "result": "1.86 ± 0.13"}
    ]},
    {"compound": "ClC(Cl)Cl", "note": "[trichloromethane] + C[n+]1ccn(CCCCS(=O)(=O)O)c1.O=S(=O)([O-])C(F)(F)F", "values": [
      {"measurement": "activity coefficient", "setting": "323.15 K", "result": "2.12 ± 0.14"},
      {"measurement": "activity coefficient", "setting": "333.15 K", "result": "2.18 ± 0.15"},
      {"measurement": "activity coefficient", "setting": "343.15 K", "result": "2.19 ± 0.15"}
    ]},
    {"compound": "ClC(Cl)Cl", "note": "[trichloromethane] + C[n+]1ccn(CCCCS(=O)(=O)O)c1.O=S(=O)([O-])O", "values": [
      {"measurement": "activity coefficient", "setting": "323.15 K", "result": "6.65 ± 0.45"},
      {"measurement": "activity coefficient", "setting": "333.15 K", "result": "6.73 ± 0.46"},
      {"measurement": "activity coefficient", "setting": "343.15 K", "result": "6.84 ± 0.47"}
    ]},
    {"compound": "CCCCCCCCCCCCC", "note": "[tridecane] + C[n+]1ccn(CCCCS(=O)(=O)O)c1.O=S(=O)([N-]S(=O)(=O)C(F)(F)F)C(F)(F)F", "values": [
      {"measurement": "activity coefficient", "setting": "323.15 K", "result": "1080 ± 75"},
      {"measurement": "activity coefficient", "setting": "333.15 K", "result": "911 ± 63"},
      {"measurement": "activity coefficient", "setting": "343.15 K", "result": "832 ± 57"}
    ]},
    {"compound": "CCCCCCCCCCCCC", "note": "[tridecane] + C[n+]1ccn(CCCCS(=O)(=O)O)c1.O=S(=O)([O-])C(F)(F)F", "values": [
      {"measurement": "activity coefficient", "setting": "323.15 K", "result": "1940 ± 130"},
      {"measurement": "activity coefficient", "setting": "333.15 K", "result": "1550 ± 110"},
      {"measurement": "activity coefficient", "setting": "343.15 K", "result": "1220 ± 84"}
    ]},
    {"compound": "CCCCCCCCCCCCC", "note": "[tridecane] + C[n+]1ccn(CCCCS(=O)(=O)O)c1.O=S(=O)([O-])O", "values": [
      {"measurement": "activity coefficient", "setting": "323.15 K", "result": "1540 ± 110"},
      {"measurement": "activity coefficient", "setting": "333.15 K", "result": "1410 ± 97"},
      {"measurement": "activity coefficient", "setting": "343.15 K", "result": "1350 ± 93"}
    ]},
    {"compound": "CCCCCCCCCCC", "note": "[undecane] + C[n+]1ccn(CCCCS(=O)(=O)O)c1.O=S(=O)([N-]S(=O)(=O)C(F)(F)F)C(F)(F)F", "values": [
      {"measurement": "activity coefficient", "setting": "323.15 K", "result": "515 ± 35"},
      {"measurement": "activity coefficient", "setting": "333.15 K", "result": "448 ± 31"},
      {"measurement": "activity coefficient", "setting": "343.15 K", "result": "425 ± 29"}
    ]},
    {"compound": "CCCCCCCCCCC", "note": "[undecane] + C[n+]1ccn(CCCCS(=O)(=O)O)c1.O=S(=O)([O-])O", "values": [
      {"measurement": "activity coefficient", "setting": "323.15 K", "result": "1490 ± 100"},
      {"measurement": "activity coefficient", "setting": "333.15 K", "result": "1370 ± 94"},
      {"measurement": "activity coefficient", "setting": "343.15 K", "result": "1310 ± 90"}
    ]}
  ]
}
